pIC50: −log10 of the molar value.
How the values were obtained:
[1] = target: T1, Dual specificity protein kinase CLK1 (Homo sapiens, UniProt P49759); experiment: Inhibition of CLK1 (unknown origin) by NanoBRET cellular target engagement assay
[2] = target: T2, Dual specificity protein kinase CLK2 (Homo sapiens, UniProt P49760); experiment: Inhibition of CLK2 (unknown origin) by NanoBRET cellular target engagement assay
[3] = target: T3, Dual specificity protein kinase CLK3 (Homo sapiens, UniProt P49761); experiment: Inhibition of CLK3 (unknown origin) by NanoBRET cellular target engagement assay
[4] = target: T4, Dual specificity protein kinase CLK4 (Homo sapiens, UniProt Q9HAZ1); experiment: Inhibition of CLK4 (unknown origin) by NanoBRET cellular target engagement assay
[5] = target: T5, Dual specificity tyrosine-phosphorylation-regulated kinase 2 (Homo sapiens, UniProt Q92630); experiment: Inhibition of DYRK2 (unknown origin) by NanoBRET cellular target engagement assay
T5 sequence (Q92630 whole entry): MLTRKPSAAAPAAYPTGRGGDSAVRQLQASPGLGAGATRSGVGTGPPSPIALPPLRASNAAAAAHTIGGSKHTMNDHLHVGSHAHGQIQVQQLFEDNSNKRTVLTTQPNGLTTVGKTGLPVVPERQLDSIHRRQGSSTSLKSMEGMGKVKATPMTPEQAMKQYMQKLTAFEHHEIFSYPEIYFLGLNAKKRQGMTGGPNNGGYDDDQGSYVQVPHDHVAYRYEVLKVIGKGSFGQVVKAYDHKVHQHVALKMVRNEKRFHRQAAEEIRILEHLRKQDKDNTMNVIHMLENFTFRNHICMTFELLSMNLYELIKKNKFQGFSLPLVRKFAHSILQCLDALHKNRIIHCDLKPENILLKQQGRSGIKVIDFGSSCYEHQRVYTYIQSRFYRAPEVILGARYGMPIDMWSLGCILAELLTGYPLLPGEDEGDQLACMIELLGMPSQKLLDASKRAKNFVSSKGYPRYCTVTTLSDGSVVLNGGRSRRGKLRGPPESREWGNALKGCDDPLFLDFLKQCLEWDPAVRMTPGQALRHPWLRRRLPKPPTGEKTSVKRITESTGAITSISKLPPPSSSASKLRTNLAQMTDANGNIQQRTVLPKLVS

[6] = target: Mitogen-activated protein kinase kinase kinase 9 (Homo sapiens, UniProt P80192); experiment: Inhibition of MLK1 (unknown origin) by NanoBRET cellular target engagement assay
[7] = target: Mitogen-activated protein kinase kinase kinase 10 (Homo sapiens, UniProt Q02779); experiment: Inhibition of MLK2 (unknown origin) by NanoBRET cellular target engagement assay
[8] = target: T1, Dual specificity protein kinase CLK1; experiment: Inhibition of human recombinant CLK1 using ERMRPRKRQGSVR substrate by radiometric scintillation assay
[9] = target: T2, Dual specificity protein kinase CLK2; experiment: Inhibition of human recombinant CLK2 using YRRAAVPPSPSLSR substrate by radiometric scintillation assay
[10] = target: T3, Dual specificity protein kinase CLK3; experiment: Inhibition of human full length recombinant CLK3 using ERMRPRKRQGSVR substrate by radiometric scintillation assay
[11] = target: T4, Dual specificity protein kinase CLK4; experiment: Inhibition of human recombinant CLK4 using YRRAAVPPSPSLS substrate by radiometric scintillation assay
[12] = target: Dual specificity tyrosine-phosphorylation-regulated kinase 1A (Homo sapiens, UniProt Q13627); experiment: Inhibition of human full length recombinant DYRK1A using RRRFRPASPLRGPP substrate by radiometric scintillation assay
[13] = target: Dual specificity tyrosine-phosphorylation-regulated kinase 1B (Homo sapiens, UniProt Q9Y463); experiment: Inhibition of human full length recombinant DYRK1B using RRRFRPASPLRGPP substrate by radiometric scintillation assay
[14] = target: T5, Dual specificity tyrosine-phosphorylation-regulated kinase 2; experiment: Inhibition of human full length recombinant DYRK2 using casein substrate by radiometric scintillation assay
[15] = target: Homeodomain-interacting protein kinase 1 (Homo sapiens, UniProt Q86Z02); experiment: Inhibition of human recombinant HIPK1 using myelin substrate by radiometric scintillation assay
[16] = target: Homeodomain-interacting protein kinase 2 (Homo sapiens, UniProt Q9H2X6); experiment: Inhibition of human recombinant HIPK2 using myelin substrate by radiometric scintillation assay
[17] = target: T6, Homeodomain-interacting protein kinase 3 (Homo sapiens, UniProt Q9H422); experiment: Inhibition of human recombinant HIPK3 using myelin substrate by radiometric scintillation assay
[18] = test system: MCF7; experiment: Cytotoxicity against human MCF7 cells assessed as reduction in cell viability incubated for 48 hrs by CyQuant assay; type: functional, cell-based; settings: MCF7, 48 h
[19] = target: Cyclin-dependent kinase-like 3 (Homo sapiens, UniProt Q8IVW4); experiment: Inhibition of CDKL3 (unknown origin) by NanoBRET cellular target engagement assay
[20] = target: T6, Homeodomain-interacting protein kinase 3; experiment: Inhibition of HIPK3 (unknown origin)

Homeodomain-interacting protein kinase 1, sequence (Q86Z02 whole entry): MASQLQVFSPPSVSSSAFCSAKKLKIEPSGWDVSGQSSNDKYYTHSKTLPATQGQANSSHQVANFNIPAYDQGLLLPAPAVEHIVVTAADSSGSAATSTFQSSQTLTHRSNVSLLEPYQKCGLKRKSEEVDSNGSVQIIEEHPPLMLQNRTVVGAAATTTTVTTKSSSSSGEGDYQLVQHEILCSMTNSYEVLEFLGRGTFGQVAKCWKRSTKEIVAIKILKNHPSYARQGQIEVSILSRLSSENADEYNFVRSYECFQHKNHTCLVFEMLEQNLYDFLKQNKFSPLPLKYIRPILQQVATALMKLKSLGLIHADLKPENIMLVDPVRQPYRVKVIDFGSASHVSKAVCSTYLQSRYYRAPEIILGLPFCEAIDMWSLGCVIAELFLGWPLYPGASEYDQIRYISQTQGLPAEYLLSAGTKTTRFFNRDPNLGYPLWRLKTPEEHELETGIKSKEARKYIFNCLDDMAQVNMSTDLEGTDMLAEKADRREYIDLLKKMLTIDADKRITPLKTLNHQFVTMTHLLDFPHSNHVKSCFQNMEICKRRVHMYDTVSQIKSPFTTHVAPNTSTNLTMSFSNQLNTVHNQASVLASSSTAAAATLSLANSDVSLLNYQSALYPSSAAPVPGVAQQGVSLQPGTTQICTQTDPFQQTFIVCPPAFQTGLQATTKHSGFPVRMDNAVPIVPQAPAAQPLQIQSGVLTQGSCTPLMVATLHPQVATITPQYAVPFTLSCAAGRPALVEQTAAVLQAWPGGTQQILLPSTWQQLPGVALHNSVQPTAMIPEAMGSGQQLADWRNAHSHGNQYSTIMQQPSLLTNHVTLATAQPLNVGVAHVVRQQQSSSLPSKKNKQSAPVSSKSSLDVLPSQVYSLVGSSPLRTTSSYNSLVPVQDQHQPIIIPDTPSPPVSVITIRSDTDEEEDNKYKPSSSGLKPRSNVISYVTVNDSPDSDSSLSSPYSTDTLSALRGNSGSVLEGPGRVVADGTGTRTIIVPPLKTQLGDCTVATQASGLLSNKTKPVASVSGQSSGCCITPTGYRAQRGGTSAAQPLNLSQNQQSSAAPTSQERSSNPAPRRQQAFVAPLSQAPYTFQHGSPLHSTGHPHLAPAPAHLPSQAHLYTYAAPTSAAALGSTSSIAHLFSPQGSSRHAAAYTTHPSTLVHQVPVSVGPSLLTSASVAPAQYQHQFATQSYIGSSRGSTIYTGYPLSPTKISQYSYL
T6 sequence (Q9H422 whole entry): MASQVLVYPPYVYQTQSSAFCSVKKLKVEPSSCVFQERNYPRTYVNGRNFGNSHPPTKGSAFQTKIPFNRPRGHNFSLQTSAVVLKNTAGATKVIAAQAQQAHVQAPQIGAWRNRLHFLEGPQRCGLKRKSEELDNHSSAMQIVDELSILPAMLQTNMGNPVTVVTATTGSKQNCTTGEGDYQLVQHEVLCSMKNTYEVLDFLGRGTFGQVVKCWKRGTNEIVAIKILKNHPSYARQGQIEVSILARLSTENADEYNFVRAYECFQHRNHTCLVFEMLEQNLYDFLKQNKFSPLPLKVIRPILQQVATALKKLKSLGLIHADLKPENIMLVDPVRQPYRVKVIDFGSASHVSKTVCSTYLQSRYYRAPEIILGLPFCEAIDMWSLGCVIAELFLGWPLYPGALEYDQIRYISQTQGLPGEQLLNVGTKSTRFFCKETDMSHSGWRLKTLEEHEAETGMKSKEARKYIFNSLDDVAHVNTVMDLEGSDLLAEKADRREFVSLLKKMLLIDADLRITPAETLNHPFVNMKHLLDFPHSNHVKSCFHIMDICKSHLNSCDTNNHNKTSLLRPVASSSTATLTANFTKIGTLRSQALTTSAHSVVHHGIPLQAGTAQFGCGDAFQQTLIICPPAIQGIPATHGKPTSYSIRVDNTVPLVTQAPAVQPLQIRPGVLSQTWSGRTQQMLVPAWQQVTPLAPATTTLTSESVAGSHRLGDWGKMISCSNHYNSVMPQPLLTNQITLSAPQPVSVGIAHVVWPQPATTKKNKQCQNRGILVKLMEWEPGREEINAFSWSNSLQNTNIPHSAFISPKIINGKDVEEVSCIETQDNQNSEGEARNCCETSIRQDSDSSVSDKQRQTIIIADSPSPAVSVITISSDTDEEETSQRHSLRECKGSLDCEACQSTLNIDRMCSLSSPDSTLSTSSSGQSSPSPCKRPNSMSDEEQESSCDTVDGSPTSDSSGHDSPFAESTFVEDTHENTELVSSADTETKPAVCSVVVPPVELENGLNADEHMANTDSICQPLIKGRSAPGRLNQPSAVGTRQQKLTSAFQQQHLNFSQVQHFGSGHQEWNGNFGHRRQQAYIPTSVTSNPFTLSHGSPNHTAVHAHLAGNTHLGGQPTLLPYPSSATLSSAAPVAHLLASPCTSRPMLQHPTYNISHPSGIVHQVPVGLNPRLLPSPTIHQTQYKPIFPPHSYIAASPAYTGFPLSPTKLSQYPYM
T2 sequence (P49760 whole entry): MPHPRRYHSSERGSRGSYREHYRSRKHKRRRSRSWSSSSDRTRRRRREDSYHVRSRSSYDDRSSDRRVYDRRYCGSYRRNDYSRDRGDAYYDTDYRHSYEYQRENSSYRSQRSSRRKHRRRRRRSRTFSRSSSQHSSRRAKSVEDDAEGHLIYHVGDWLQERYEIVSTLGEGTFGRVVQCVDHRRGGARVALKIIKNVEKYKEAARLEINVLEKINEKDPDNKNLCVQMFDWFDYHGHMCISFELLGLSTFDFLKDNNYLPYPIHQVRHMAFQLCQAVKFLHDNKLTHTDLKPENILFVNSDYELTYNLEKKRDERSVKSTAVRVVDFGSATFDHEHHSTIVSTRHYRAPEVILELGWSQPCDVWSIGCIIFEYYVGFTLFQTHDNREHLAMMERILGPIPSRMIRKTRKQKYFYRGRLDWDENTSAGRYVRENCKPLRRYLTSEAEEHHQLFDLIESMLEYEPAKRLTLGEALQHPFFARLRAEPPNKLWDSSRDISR
Dual specificity tyrosine-phosphorylation-regulated kinase 1B, sequence (Q9Y463 whole entry): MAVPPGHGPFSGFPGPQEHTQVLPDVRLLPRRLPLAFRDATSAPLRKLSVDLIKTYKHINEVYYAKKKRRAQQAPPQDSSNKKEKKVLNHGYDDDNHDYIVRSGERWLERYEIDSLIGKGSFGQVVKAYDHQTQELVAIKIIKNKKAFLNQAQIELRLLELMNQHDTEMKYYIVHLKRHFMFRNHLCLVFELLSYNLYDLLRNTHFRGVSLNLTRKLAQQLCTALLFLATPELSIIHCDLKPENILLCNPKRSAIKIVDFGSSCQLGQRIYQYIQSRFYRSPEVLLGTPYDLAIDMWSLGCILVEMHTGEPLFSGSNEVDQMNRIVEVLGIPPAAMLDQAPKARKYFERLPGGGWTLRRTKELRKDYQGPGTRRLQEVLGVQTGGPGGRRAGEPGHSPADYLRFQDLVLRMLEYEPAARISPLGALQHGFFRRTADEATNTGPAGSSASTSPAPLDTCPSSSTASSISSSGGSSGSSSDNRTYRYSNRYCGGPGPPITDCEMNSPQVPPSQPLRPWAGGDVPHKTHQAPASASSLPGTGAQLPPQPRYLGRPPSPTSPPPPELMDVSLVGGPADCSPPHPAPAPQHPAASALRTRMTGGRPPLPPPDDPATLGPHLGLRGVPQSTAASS
T1 sequence (P49759 whole entry): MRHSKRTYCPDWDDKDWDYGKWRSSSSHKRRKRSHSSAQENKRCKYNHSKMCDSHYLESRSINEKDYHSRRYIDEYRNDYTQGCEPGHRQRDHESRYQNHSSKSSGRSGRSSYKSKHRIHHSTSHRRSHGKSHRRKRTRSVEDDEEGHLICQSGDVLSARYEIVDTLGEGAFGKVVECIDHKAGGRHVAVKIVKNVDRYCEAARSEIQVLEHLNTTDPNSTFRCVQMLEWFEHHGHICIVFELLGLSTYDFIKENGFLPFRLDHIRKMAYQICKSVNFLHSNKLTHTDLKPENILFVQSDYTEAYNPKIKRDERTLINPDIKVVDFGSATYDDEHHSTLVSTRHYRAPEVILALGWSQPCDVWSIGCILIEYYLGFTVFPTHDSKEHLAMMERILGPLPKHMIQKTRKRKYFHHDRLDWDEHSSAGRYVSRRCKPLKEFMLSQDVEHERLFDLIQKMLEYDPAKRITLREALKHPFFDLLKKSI
T3 sequence (P49761 whole entry): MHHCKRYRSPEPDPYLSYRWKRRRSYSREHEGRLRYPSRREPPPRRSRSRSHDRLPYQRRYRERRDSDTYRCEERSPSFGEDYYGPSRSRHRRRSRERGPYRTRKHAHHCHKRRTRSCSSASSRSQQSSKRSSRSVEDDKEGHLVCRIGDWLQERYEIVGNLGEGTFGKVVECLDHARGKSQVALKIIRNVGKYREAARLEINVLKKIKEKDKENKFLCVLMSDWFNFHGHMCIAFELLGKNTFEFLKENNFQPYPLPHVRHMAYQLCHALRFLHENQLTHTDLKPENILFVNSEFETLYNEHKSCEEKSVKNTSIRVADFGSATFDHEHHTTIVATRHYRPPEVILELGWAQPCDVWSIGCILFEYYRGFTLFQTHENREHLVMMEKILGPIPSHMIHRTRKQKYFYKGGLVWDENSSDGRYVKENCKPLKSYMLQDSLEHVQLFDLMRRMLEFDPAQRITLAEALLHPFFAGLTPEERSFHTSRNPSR
T4 sequence (Q9HAZ1 whole entry): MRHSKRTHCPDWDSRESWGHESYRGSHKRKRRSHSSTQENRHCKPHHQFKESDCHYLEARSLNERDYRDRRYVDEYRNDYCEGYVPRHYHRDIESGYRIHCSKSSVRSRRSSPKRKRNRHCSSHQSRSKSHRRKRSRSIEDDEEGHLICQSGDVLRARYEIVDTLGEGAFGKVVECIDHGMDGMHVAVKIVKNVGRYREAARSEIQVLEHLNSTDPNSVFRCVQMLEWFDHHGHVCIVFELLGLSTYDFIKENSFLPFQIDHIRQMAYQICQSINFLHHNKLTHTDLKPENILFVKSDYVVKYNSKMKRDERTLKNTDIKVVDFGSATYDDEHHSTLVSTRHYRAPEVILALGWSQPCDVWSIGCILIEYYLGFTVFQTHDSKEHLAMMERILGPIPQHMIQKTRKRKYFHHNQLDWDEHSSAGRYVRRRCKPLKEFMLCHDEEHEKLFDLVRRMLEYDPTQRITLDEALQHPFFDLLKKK

| pIC50 [1] | pIC50 [2] | pIC50 [3] | pIC50 [4] | pIC50 [5] | pIC50 [6] | pIC50 [7] | pIC50 [19] | pIC50 [20] | Structure (SMILES) | pIC50 [8] | pIC50 [9] | pIC50 [10] | pIC50 [11] | pIC50 [12] | pIC50 [13] | pIC50 [14] | pIC50 [15] | pIC50 [16] | pIC50 [17] | pIC50 [18] |
| --- | --- | --- | --- | --- | --- | --- | --- | --- | --- | --- | --- | --- | --- | --- | --- | --- | --- | --- | --- | --- |
| < 5.52 | < 5.52 | < 5.52 | < 5.52 | < 5.52 | < 5.52 | < 5.52 |  |  | COC(=N)c1nc2ccc3ncnc(Nc4ccc(OC)cc4F)c3c2s1 |  |  |  |  |  |  |  |  |  |  |  |
|  |  |  |  |  |  |  |  |  | CC1(c2ccc(-c3coc4ccc(-c5cn[nH]c5)nc34)cc2)CC1 | 6.51 | 6.81 | < 5.52 | 6.49 | < 5.52 | < 5.52 | < 5.52 | 6.66 | 7.17 | 6.36 |  |
|  |  |  |  |  |  |  |  |  | CN1CCC(c2cccc(-c3coc4ccc(-c5cnn(C)c5)nc34)c2)CC1 | 6.77 | 6.18 | < 5.52 | 6.94 | 6.25 | < 5.52 | < 5.52 | 6.45 | 6.59 | 6.16 |  |
|  |  |  |  |  |  |  |  |  | C=C(C)c1ccc(-c2coc3ccc(-c4cn[nH]c4)nc23)cc1 | 7.17 | 7.40 | < 5.52 | 7.38 | 5.86 | < 5.52 | < 5.52 | 7.29 | 7.39 | 7.19 |  |
|  |  |  |  |  |  |  |  |  | COc1ccc(-c2coc3ccc(-c4cn[nH]c4)nc23)cc1 |  | 7.41 |  | 7.34 |  |  | 6.00 | 7.48 | 7.82 | 7.18 |  |
|  |  |  |  |  |  |  |  |  | Cn1cc(-c2ccc3occ(-c4ccc(C(C)(C)C)cc4)c3n2)cn1 | < 5.52 | < 5.52 | < 5.52 | < 5.52 | < 5.52 | < 5.52 | < 5.52 | < 5.52 | < 5.52 | < 5.52 |  |
|  |  |  |  |  |  |  |  |  | CC(C)(C)c1ccc(-c2coc3ccc(-c4cnsc4)nc23)cc1 | < 5.52 | < 5.52 | < 5.52 | < 5.52 | < 5.52 | < 5.52 | < 5.52 | < 5.52 | < 5.52 | < 5.52 |  |
|  |  |  |  |  |  |  |  |  | c1ccc2cc(-c3coc4ccc(-c5cn[nH]c5)nc34)ccc2c1 |  | 7.60 |  | 7.51 |  |  | 5.84 | 7.80 | 8.30 | 7.42 |  |
|  |  |  |  |  |  |  |  |  | Cn1cc(-c2ccc3occ(-c4cccc(-c5ccncc5)c4)c3n2)cn1 |  |  |  |  |  |  |  |  |  |  | 5.34 |
|  |  |  |  |  |  |  |  |  | c1n[nH]cc1-c1ccc2occ(-c3ccc(C45CC6CC(CC(C6)C4)C5)cc3)c2n1 | < 5.52 | < 5.52 | < 5.52 | < 5.52 | < 5.52 | < 5.52 | < 5.52 | < 5.52 | < 5.52 | < 5.52 |  |
|  |  |  |  |  |  |  |  |  | Cn1cc(-c2ccc3occ(-c4cccc(-c5cc[nH]n5)c4)c3n2)cn1 | 7.85 | 7.80 | 5.78 | 7.82 | 6.94 | 5.72 | < 5.52 | 6.90 | 7.52 | 6.89 |  |
|  |  |  |  |  |  |  |  |  | CC(C)(C)c1ccc(-c2coc3ccc(-c4nn[nH]n4)nc23)cc1 | < 5.52 | < 5.52 | < 5.52 | < 5.52 | < 5.52 | < 5.52 | < 5.52 | 6.26 | 6.45 | 6.14 |  |
|  |  |  |  |  |  |  |  |  | c1n[nH]cc1-c1ccc2occ(-c3ccc(C4CCCCC4)cc3)c2n1 | 5.68 | < 5.52 | < 5.52 | 6.11 | < 5.52 | < 5.52 | < 5.52 | < 5.52 | 6.18 | < 5.52 |  |
|  |  |  |  |  |  |  |  |  | c1ccc(-c2ccc(-c3coc4ccc(-c5cn[nH]c5)nc34)cc2)cc1 | 6.94 | 6.28 | < 5.52 | 6.90 | < 5.52 | < 5.52 | < 5.52 | 6.56 | 6.76 | 6.09 |  |
|  |  |  |  |  |  |  |  |  | c1ccc(Cc2ccc(-c3coc4ccc(-c5cn[nH]c5)nc34)cc2)cc1 | 6.35 | 5.73 | < 5.52 | 6.45 | < 5.52 | < 5.52 | < 5.52 | 6.04 | 6.32 | < 5.52 |  |
|  |  |  |  |  |  |  |  |  | Cn1cc(-c2ccc3occ(-c4cccc(-c5cn[nH]c5)c4)c3n2)cn1 | 7.80 | 7.43 | 5.80 | 7.72 | 6.86 | 5.88 | < 5.52 | 6.75 | 6.99 | 6.79 | 4.52 |
|  |  |  |  |  |  |  |  |  | c1ccc(-c2coc3ccc(-c4cn[nH]c4)nc23)cc1 |  | 7.14 |  | 7.39 |  |  | 5.94 | 7.21 | 7.38 | 6.89 |  |
|  |  |  |  |  |  |  |  |  | Cn1cc(-c2ccc3occ(-c4ccc(C(C)(C)C)cc4)c3n2)nn1 | < 5.52 | < 5.52 | < 5.52 | < 5.52 | < 5.52 | < 5.52 | < 5.52 | < 5.52 | < 5.52 | < 5.52 |  |
|  |  |  |  |  |  |  |  |  | Cn1cc(-c2coc3ccc(-c4cn[nH]c4)nc23)cn1 |  | 6.75 |  | 7.35 |  |  | 5.92 | 6.63 | 7.55 |  |  |
|  |  |  |  |  |  |  |  |  | Cn1cc(-c2ccc3occ(-c4cccc(C5CCNCC5)c4)c3n2)cn1 | 7.23 | 7.05 | < 5.52 | 7.28 | 6.49 | < 5.52 | < 5.52 | 6.58 | 6.75 | 6.52 |  |
|  |  |  |  |  |  |  |  |  | Cn1ccc(-c2ccc3occ(-c4ccc(C(C)(C)C)cc4)c3n2)n1 | < 5.52 | < 5.52 | < 5.52 | < 5.52 | < 5.52 | < 5.52 | < 5.52 | < 5.52 | < 5.52 | < 5.52 |  |
|  |  |  |  |  |  |  |  |  | CC(C)Cc1ccc(-c2coc3ccc(-c4cn[nH]c4)nc23)cc1 | 6.17 | 6.08 | < 5.52 | 6.05 | < 5.52 | < 5.52 | < 5.52 | 6.16 | 6.30 | 5.91 |  |
|  |  |  |  |  |  |  |  |  | CC(C)(C)c1ccc(-c2coc3ccc(-c4cnn(CCN5CCOCC5)c4)nc23)cc1 | < 5.52 | < 5.52 | < 5.52 | < 5.52 | < 5.52 | < 5.52 | < 5.52 | < 5.52 | < 5.52 | < 5.52 |  |
|  |  |  |  |  |  |  |  |  | Cn1cc(-c2cccc(-c3coc4ccc(-c5cnn(C)c5)nc34)c2)cn1 | 7.74 | 7.80 | < 5.52 | 7.77 | 6.83 | 5.62 | 6.11 | 6.68 | 7.15 | 6.90 | < 4.00 |
|  |  |  |  |  |  |  |  |  | CC(C)(C)c1ccc(-c2coc3ccc(-c4cc[nH]n4)nc23)cc1 | < 5.52 | < 5.52 | < 5.52 | < 5.52 | < 5.52 | < 5.52 | < 5.52 | < 5.52 | 5.89 | < 5.52 |  |
|  |  |  |  | 6.24 |  |  | 5.96 |  | O=C(Nc1c[nH]nc1-c1nc2cc(CN3CCOCC3)ccc2[nH]1)NC1CC1 [AT-9283] |  |  |  |  |  |  |  |  |  |  |  |
|  |  |  |  |  |  |  |  | 7.00 | CN(C)C[C@@H]1CCn2cc(c3ccccc32)C2=C(C(=O)NC2=O)c2cn(c3ccccc23)CCO1 [RUBOXISTAURIN] |  |  |  |  |  |  |  |  |  |  |  |

— ChEMBL document CHEMBL4732242 (Eur J Med Chem, 2021)
